Assay results reported in patent publication US10913736B2 (UNIVERSITY OF WASHINGTON, priority 2014, dated 2021).
Several values for one entry are separate records, joined by “and”; a condition that tells them apart may be missing. Equal values may be shown once. Read-outs that look alike come from different tables or passages of the source.

Key:
MetRS (T. brucei) = MetRS (T. brucei) (Trypanosoma brucei brucei, UniProt Q38C91); experiment: MetRS (T. brucei) ATP depletion assay using Kinase-Glo; format: biochemical
Chain of MetRS (T. brucei) (Q38C91 entry or part of it): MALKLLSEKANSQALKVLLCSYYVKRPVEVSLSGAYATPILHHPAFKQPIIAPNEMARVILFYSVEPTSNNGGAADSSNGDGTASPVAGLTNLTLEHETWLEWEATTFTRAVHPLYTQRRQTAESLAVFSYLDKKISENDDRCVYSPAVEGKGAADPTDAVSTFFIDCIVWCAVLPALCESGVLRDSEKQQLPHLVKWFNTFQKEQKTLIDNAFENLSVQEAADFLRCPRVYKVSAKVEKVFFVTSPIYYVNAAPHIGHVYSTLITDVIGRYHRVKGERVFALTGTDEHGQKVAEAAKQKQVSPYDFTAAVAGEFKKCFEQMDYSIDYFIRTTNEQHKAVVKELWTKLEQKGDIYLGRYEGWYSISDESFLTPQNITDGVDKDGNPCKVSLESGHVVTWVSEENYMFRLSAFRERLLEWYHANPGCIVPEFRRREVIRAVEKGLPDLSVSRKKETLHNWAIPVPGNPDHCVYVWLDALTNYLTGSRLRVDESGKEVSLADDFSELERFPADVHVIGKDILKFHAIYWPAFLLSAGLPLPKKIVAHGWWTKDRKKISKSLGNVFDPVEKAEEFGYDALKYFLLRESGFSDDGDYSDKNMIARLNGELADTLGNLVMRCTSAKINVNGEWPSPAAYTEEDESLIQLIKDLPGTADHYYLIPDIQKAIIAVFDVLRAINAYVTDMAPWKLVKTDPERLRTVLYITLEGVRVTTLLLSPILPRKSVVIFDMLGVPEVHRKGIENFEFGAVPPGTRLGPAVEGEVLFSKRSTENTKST

T. brucei = experiment: Growth inhibition assay of T. brucei cell cultures (Alamar Blue, 48 h); format: cell-based
MetRS (S. aureus) = MetRS (S. aureus) (Staphylococcus aureus, UniProt Q5HII6); experiment: biochemical; conditions: ATP depletion, Kinase-Glo; read-out: H) MetRS (S. aureus) ATP depletion assay using Kinase-Glo with modified cpd dilution method, IC50
Chain of MetRS (S. aureus) (Q5HII6 whole entry): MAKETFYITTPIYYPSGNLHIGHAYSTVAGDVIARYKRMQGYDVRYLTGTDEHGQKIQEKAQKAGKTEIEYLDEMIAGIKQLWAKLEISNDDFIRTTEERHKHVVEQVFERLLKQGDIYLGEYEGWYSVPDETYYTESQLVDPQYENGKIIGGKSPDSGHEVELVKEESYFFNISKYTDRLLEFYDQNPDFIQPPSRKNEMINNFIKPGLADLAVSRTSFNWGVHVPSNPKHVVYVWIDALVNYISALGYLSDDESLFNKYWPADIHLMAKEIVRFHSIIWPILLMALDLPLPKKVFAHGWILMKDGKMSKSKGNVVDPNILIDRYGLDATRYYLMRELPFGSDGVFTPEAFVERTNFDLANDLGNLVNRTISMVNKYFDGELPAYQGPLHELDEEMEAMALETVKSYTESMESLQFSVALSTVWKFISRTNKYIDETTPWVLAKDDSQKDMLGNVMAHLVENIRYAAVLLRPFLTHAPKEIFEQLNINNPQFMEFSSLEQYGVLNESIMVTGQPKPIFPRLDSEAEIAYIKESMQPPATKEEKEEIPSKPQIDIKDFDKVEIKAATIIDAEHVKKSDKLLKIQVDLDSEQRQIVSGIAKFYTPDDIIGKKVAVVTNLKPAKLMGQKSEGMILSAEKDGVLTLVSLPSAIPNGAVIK

[1] = Trypanosoma brucei; read-out: B) T. brucei EC50

| SMILES | IC50 (MetRS (T. brucei)) | EC50 (T. brucei; [1]) | IC50 (MetRS (S. aureus)) | EC50 (T. brucei; read-out: B) T. brucei EC50) |
| --- | --- | --- | --- | --- |
| Clc1ccc2[nH]c(N3CCC[C@H](NCc4cc(Br)cc(Br)c4)C3)nc2n1 [Compound 1908, (S)-1-(5-chloro-1H-imidazo[4,5-b]pyridin-2-yl)-N-(3,5-dibromobenzyl) piperidin-3-amine] | 15 nM | 85.2 nM | 155 nM | – |
| CC(=O)N(CCCNc1nc2ccc(F)nc2[nH]1)Cc1cc(Cl)cc(Cl)c1 [Compound 1959, N-(3,5-dichlorobenzyl)-N-(3-(5-fluoro-3H-imidazo[4,5-b]pyridin-2-ylamino)propyl)acetamide] | 16 nM | 39.3 nM | 12 nM | 51.1 nM |
| CCOc1c(Cl)cc(Cl)cc1CNCCN(C)c1nc2nc(Cl)ccc2[nH]1 [Compound 1925, 5-chloro-N-(2-{[(3,5-dichloro-2-ethoxyphenyl)methyl]amino}ethyl)-N-methyl-3H-imidazo[4,5-b]pyridin-2-amine] | 15 nM | 314 nM | 266 nM | – |
| CN(CCN(Cc1cc(Cl)cc(Cl)c1)C(=O)CO)c1nc2ccc(Cl)nc2[nH]1 [Compound 1971, N-(3,5-dichlorobenzyl)-N-(2-(5-chloro-N-methyl-1H-imidazo[4,5-b]pyridin-2-ylamino)ethyl)-2-hydroxyacetamide] | 13 nM | 62.3 nM | 85 nM | 40.4 nM |
| CC(=O)N(CCN(C)c1nc2nc(F)ccc2[nH]1)Cc1cc(Cl)cc(Cl)c1 [Compound 1914, N-[(3,5-dichlorophenyl)methyl]-N-[2-({5-fluoro-1H-imidazo[4,5-b]pyridin-2-yl}(methyl)amino)ethyl]acetamide] | 18 nM | 252 nM | 303 nM | – |
| O=c1[nH]c(Cc2ccc(Cl)cc2Cl)cn1Cc1nc2ccc(F)nc2[nH]1 [Compound 1962, 5-(2,4-dichlorobenzyl)-3-((5-fluoro-3H-imidazo[4,5-b]pyridin-2-yl)methyl)-1H-imidazol-2(3H)-one] | 19 nM | 12.9 nM | 17 nM | – |
| Clc1cc(Cl)cc(CNc2cccc(-c3nc4ccc(Cl)nc4[nH]3)c2)c1 [Compound 1966, 3-{5-chloro-3H-imidazo[4,5-b]pyridin-2-yl}-N-[(3,5-dichlorophenyl)methyl]amine] | 72 nM | 1030 nM | 5730 nM | – |
| CC(=O)N(CCCc1nc2ccc(Cl)nc2[nH]1)Cc1cc(Cl)cc(Cl)c1 [Compound 1895, N-(3-(5-chloro-1H-imidazo[4,5-b]pyridin-2-yl)propyl)-N-(3,5-dichlorobenzyl)acetamide] | 17 nM | 569 nM | 445 nM | – |
| O=C(CNc1nc2ccc(Cl)nc2[nH]1)NCc1cc(Cl)cc(Cl)c1 [Compound 1970, 2-((5-chloro-3H-imidazo[4,5-b]pyridin-2-yl)amino)-N-(3,5-dichlorobenzyl)acetamide] | 69 nM | 2980 nM | 1080 nM | – |
| CC(=O)N(CCNc1nc2nc(F)ccc2[nH]1)Cc1cc(Cl)cc(Cl)c1 [Compound 1897, N-(3,5-dichlorobenzyl)-N-(2-((5-fluoro-1H-imidazo[4,5-b]pyridin-2-yl)amino)ethyl) acetamide] | 16 nM | 653 nM | 606 nM | – |
| COC(=O)N(CCN(C)c1nc2nc(Cl)ccc2[nH]1)Cc1cc(Cl)cc(Cl)c1 [Compound 1963, methyl 3,5-dichlorobenzyl2-(5-chloro-N-methyl-1H-imidazo[4,5-b]pyridin-2-ylamino)ethylcarbamate] | 21 nM | 97.4 nM | 348 nM | – |
| Clc1cc(Cl)cc(NCCCNc2nc3ccc(Cl)nc3[nH]2)c1 [Compound 1967] | 88 nM | 2300 nM | > 1000 nM | – |
| CN(CCN(Cc1cc(Cl)cc(Cl)c1)C(N)=O)c1nc2ccc(Cl)nc2[nH]1 [Compound 1972, 1-(3,5-dichlorobenzyl)-1-(2-(5-chloro-N-methyl-1H-imidazo[4,5-b]pyridin-2-ylamino)ethyl)urea] | 27 nM | – | 140 nM | – |
| COc1ccc(Oc2ccnc(NCc3nc4ccc(F)nc4[nH]3)c2)c(Cl)c1 [Compound 1960, 4-(2-chloro-4-methoxyphenoxy)-N-({5-fluoro-3H-imidazo[4,5-b]pyridin-2-yl}methyl)pyridin-2-amine] | 21 nM | – | 12 nM | – |
| O=C(Cc1cc(Cl)cc(Cl)c1)N1CCCC(c2nc3c(Cl)cccc3[nH]2)C1 (stereo not shown) [Compound 1733, 1-(3-(4-chloro-1H-benzo[d]imidazol-2-yl)piperidin-1-yl)-2-(3,5-dichlorophenyl) ethanone] | 926 nM | 8810 nM | – | – |
| COc1ccc(Oc2cc(NCc3nc4ccccc4[nH]3)ccn2)c(Cl)c1 [Compound 1950, N-(1H-1,3-benzodiazol-2-ylmethyl)-2-(2-chloro-4-methoxyphenoxy)pyridin-4-amine] | 50 nM | – | 797 nM | – |
| O=C(Nc1cc(Cl)cc(Cl)c1)N1CCCC(c2nc3cc(Cl)ccc3[nH]2)C1 (stereo not shown) [Compound 1759, 3-(5-chloro-1H-benzo[d]imidazol-2-yl)-N-(3,5-dichlorophenyl) piperidine-1-carboxamide] | > 10000 nM | > 10000 nM | – | – |

| SMILES | IC50 (MetRS (T. brucei)) | EC50 (T. brucei; [1]) | IC50 (MetRS (S. aureus)) | EC50 (T. brucei; read-out: B) T. brucei EC50) |
| --- | --- | --- | --- | --- |
| Clc1cc(Cl)cc(CNCCc2nc3ccc(Cl)nc3[nH]2)c1 [Compound 1780, [2-(5-chloro-3H-imidazo[4,5-b]pyridin-2-yl)-ethyl]-(3,5-dichloro-benzyl)-amine] | 67 nM and 36 nM | 1160 nM | – | 1060 nM |
| CN(CCN(Cc1cc(Cl)cc(Cl)c1)C(=O)CN)c1nc2nc(Cl)ccc2[nH]1 [Compound 1957, 2-amino-N-[2-({5-chloro-1H-imidazo[4,5-b]pyridin-2-yl}(methyl)amino)ethyl]-N-[(3,5-dichlorophenyl)methyl]acetamide] | 11 nM | – | 424 nM | – |
| Fc1ccc2[nH]c(C3CCCC(NCc4cc(Cl)cc(Cl)c4)C3)nc2c1 (stereo not shown) [Compound 1839, N-(3,5-dichlorobenzyl)-3-(5-fluoro-1H-benzo[d]imidazol-2-yl) cyclohexanamine] | 3680 nM | 2320 nM | – | – |
| CC(=O)N(Cc1cc(Cl)cc(Cl)c1)C1CCCC(c2nc3ncccc3[nH]2)C1 (stereo not shown) [Compound 1818, N-(3-(1H-imidazo[4,5-b]pyridin-2-yl)cyclohexyl)-N-(3,5-dichlorobenzyl) acetamide] | 7950 nM | > 20000 nM | – | – |
| Clc1ccc(Cn2cc(Cc3nc4ccccc4[nH]3)nn2)c(Cl)c1 [Compound 1752, 2-((1-(2,4-dichlorobenzyl)-1H-1,2,3-triazol-4-yl)methyl)-1H-benzo[d]imidazole] | 1360 nM | > 10000 nM | – | – |
| O=C(CNc1cc(Cl)cc(Cl)c1)NCc1nc2ccc(Cl)nc2[nH]1 [Compound 1990, N-({5-chloro-3H-imidazo[4,5-b]pyridin-2-yl}methyl)-2-[(3,5-dichlorophenyl)amino]acetamide] | 17 nM | 2040 nM | – | – |
| CC(=O)N(Cc1cc(Cl)cc(Cl)c1)[C@@H]1CCC[C@H](c2nc3nc(F)ccc3[nH]2)C1 [Compound 1932, N-(3,5-dichlorobenzyl)-N-((1R,3S)-3-(5-fluoro-1H-imidazo[4,5-b]pyridin-2-yl)cyclohexyl)acetamide] | 518 nM | 8910 nM | – | – |
| CC(Cc1nc2ccc(C(F)(F)F)cc2[nH]1)NCc1cc(Cl)cc(Cl)c1 (stereo not shown) [Compound 1825, [(3,5-dichlorophenyl)methyl]({1-[6-(trifluoromethyl)-1H-1,3-benzodiazol-2-yl]propan-2-yl})amine] | 1560 nM | 3650 nM | – | – |
| Clc1cc(Cl)c(OCC2CC2)c(CN[C@H]2CCCN(c3nc4nc(Cl)ccc4[nH]3)C2)c1 [Compound 1929, (S)-1-(5-chloro-1H-imidazo[4,5-b]pyridin-2-yl)-N-(3,5-dichloro-2-(cyclopropylmethoxy)benzyl)piperidin-3-amine] | 29 nM | 511 nM | – | – |
| NC(CC(=O)NCc1cc(Cl)cc(Cl)c1)c1nc2ccc(Cl)nc2[nH]1 (stereo not shown) [Compound 1969, 3-amino-3-(5-chloro-3H-imidazo[4,5-b]pyridin-2-yl)-N-(3,5-dichlorobenzyl)propanamide] | 782 nM | 7960 nM | – | – |
| Fc1ccc2nc(NCCCNc3ccc(Cl)cc3Cl)[nH]c2n1 [Compound 1956, N1-(2,4-dichlorophenyl)-N3-(5-fluoro-3H-imidazo[4,5-b]pyridin-2-yl)propane-1,3-diamine] | 325 nM | 1550 nM | – | – |
| COC(=O)N(CCCNc1nc2ccc(F)nc2n1C(=O)OC)Cc1cc(Cl)cc(Cl)c1 [Compound 1965, methyl 3,5-dichlorobenzyl3-(3-(methoxycarbonyl)-5-fluoro-3H-imidazo[4,5-b]pyridin-2-ylamino)propylcarbamate] | 345 nM and 322 nM | 96.2 nM | – | – |
| COc1ccc(Oc2cccc(NCCc3nc4ccccc4[nH]3)n2)c(Cl)c1 [Compound 1918, N-[2-(1H-1,3-benzodiazol-2-yl)ethyl]-6-(2-chloro-4-methoxyphenoxy)pyridin-2-amine] | 1110 nM | 9560 nM | – | – |
| Clc1cc(Cl)cc(CNc2cccc(-c3nc4ccc(Cl)cc4[nH]3)c2)c1 [Compound 1952, 3-(6-chloro-1H-1,3-benzodiazol-2-yl)-N-[(3,5-dichlorophenyl)methyl]aniline] | 2280 nM and 1740 nM | 187 nM | – | 367 nM |
| O=C(NCc1cc(Cl)cc(Cl)c1)N1CCCC(c2nc3nc(Cl)ccc3[nH]2)C1 (stereo not shown) [Compound 1785, 3-(5-chloro-1H-imidazo[4,5-b]pyridin-2-yl)-N-(3,5-dichlorobenzyl) piperidine-1-carboxamide] | > 10000 nM | > 20000 nM | – | – |
| Clc1cc(Cl)cc(CNC2CN(c3nc4nc(Cl)c(Br)cc4[nH]3)C2)c1 [Compound 1865, 1-{6-bromo-5-chloro-1H-imidazo[4,5-b]pyridin-2-yl}-N-[(3,5-dichlorophenyl)methyl]azetidin-3-amine] | > 10000 nM | 6630 nM | – | – |
